The nature of data set [1]: Permeability of the compound at 10 uM by PAMPA-BBB assay in presence of mixture of porcine brain lipids dodecane. Format: ADME. Conditions: pig.
The nature of data set [2]: Intrinsic clearance in male mouse liver microsomes at 1 uM by UPLC/TOF-MS analysis. The format is ADME. The settings on record: read-out: CLH. (In general: Liver microsomes are a subcellular fraction often used to study metabolism.)
Data set [3] in a line: Metabolic stability in mouse plasma assessed as compound remaining measured at 10 uM after 3 hrs by LC-MS/MS analysis. The format is ADME, cell-free. Conditions: read-out: Stability.
In a further data set the test system is MDR1. Nature of the data set: Apparent permeability from apical to basolateral side in MDCK cells expressing human MDR1 at 10 uM after 120 mins by UPLC/TOF-MS analysis. Format: ADME, cell-based, Canis lupus familiaris. The settings on record: dog, read-out: permeability.
A short description of data set [4]: Cmax in CD1 mouse at 5 mg/kg, po. Format: ADME, organism-based. Conditions: in vivo. Set-up: dose 5 mg/kg, route oral.
Data set [5] can be described thus: Half life in CD1 mouse at 5 mg/kg, po. Conditions: in vivo. The format is ADME, organism-based. Set-up: dose 5 mg/kg, route oral.
Data set [6] concerns Mus musculus. Kind of data set: Volume of distribution at steady state in CD1 mouse at 5 mg/kg, po. The format is ADME, organism-based. Set-up: dose 5 mg/kg, route oral. Conditions: in vivo.
Data set [7] deals with Mus musculus. Kind of data set: AUC (0 to infinity) in CD1 mouse at 5 mg/kg, po. Format: ADME, organism-based, Plasma. Set-up: time infinity, dose 5 mg/kg, route oral. The settings on record: in vivo.
A short description of data set [8]: Oral bioavailability in CD1 mouse at 5 mg/kg. The settings on record: in vivo. Format: ADME, organism-based.
Data set [9] in a line: Ratio of drug level in brain to plasma in CD1 mouse at 5 mg/kg, po. The format is ADME, organism-based. Set-up: dose 5 mg/kg, route oral. Conditions: read-out: BPR.
A short description of data set [10]: Toxicity in human NCI-N87 cells xenografted po dosed SCID mouse qd for 14 days. Format: organism-based. The settings on record: in vivo. A general note: In xenograft studies the graft and the host belong to different species.
Data set [11] in a line: Cmax in SCID mouse at 100 mg/kg, po qd for 14 days. The format is ADME, organism-based. Set-up: dose 100 mg/kg, route oral. Conditions: in vivo.
The nature of data set [12]: Cmax in SCID mouse at 100 mg/kg, po qd for 1 to 7 days and 14 to 21 days. Format: ADME, organism-based. Set-up: dose 100 mg/kg, route oral. Conditions: in vivo.
Data set [13] is described as follows: Cmax in SCID mouse at 300 mg/kg, po qd for 1 to 3 days. Set-up: dose 300 mg/kg, route oral. The settings on record: in vivo. The format is ADME, organism-based.
Data set [14] can be described thus: AUC in SCID mouse at 100 mg/kg, po qd for 14 days. The format is ADME, organism-based. Set-up: dose 100 mg/kg, route oral. Conditions: plasma.
Data set [15] in a line: AUC in SCID mouse at 100 mg/kg, po qd for 1 to 7 days and 14 to 21 days. Format: ADME, organism-based. Set-up: dose 100 mg/kg, route oral. Conditions: plasma.
A short description of data set [16]: AUC in SCID mouse at 300 mg/kg, po qd for 1 to 3 days. The format is ADME, organism-based. Set-up: dose 300 mg/kg, route oral. The settings on record: plasma.
Data set [17] in a line: Tmax in SCID mouse at 100 mg/kg, po qd for 14 days. Format: ADME, organism-based. Set-up: dose 100 mg/kg, route oral. Conditions: in vivo.
Data set [18] in a line: Tmax in SCID mouse at 100 mg/kg, po qd for 1 to 7 days and 14 to 21 days. Format: ADME, organism-based. Set-up: dose 100 mg/kg, route oral. Conditions: in vivo.
A short description of data set [19]: Tmax in SCID mouse at 300 mg/kg, po qd for 1 to 3 days. The format is ADME, organism-based. Set-up: dose 300 mg/kg, route oral. Conditions: in vivo.
Data set [20] can be described thus: Half life in SCID mouse at 100 mg/kg, po qd for 14 days. Format: ADME, organism-based. Set-up: dose 100 mg/kg, route oral. Conditions: in vivo.
Data set [21] is described as follows: Half life in SCID mouse at 100 mg/kg, po qd for 1 to 7 days and 14 to 21 days. The format is ADME, organism-based. Set-up: dose 100 mg/kg, route oral. Conditions: in vivo.
The nature of data set [22]: Half life in SCID mouse at 300 mg/kg, po qd for 1 to 3 days. The format is ADME, organism-based. Set-up: dose 300 mg/kg, route oral. The settings on record: in vivo.

Consider `COc1ccccc1N1CCN(C(=O)[C@H]2CC[C@H](Cn3c(=O)[nH]c4ccccc4c3=O)CC2)CC1`, for which, in [1], the permeability result is listed as “impermeable”.

Turning to `O=c1[nH]c2ccccc2c(=O)n1C[C@H]1CC[C@H](C(=O)N2CCN(c3ncccn3)CC2)CC1`, the permeability result in data set [1] was “permeable”.

Take `O=c1[nH]c2ccccc2c(=O)n1C[C@H]1CC[C@H](C(=O)N2CCN(c3cnccn3)CC2)CC1`: the permeability result in [1] is given as “permeable”.

As for `O=c1[nH]c2ccccc2c(=O)n1C[C@H]1CC[C@H](C(=O)N2CCN(Cc3ccccc3)CC2)CC1`, the permeability result in data set [1] is reported as “impermeable”.

For the compound `O=c1[nH]c2ccccc2c(=O)n1C[C@H]1CC[C@H](C(=O)N2CCN(CC3CC3)CC2)CC1`, in data set [1], the permeability entry was “permeable”.

Regarding `CC(C)CN1CCN(C(=O)[C@H]2CC[C@H](Cn3c(=O)[nH]c4ccccc4c3=O)CC2)CC1`, the permeability result in [1] was “permeable”.

In the case of `CC(=O)N1CCN(C(=O)[C@H]2CC[C@H](Cn3c(=O)[nH]c4ccccc4c3=O)CC2)CC1`, the permeability entry in [1] is on record as “permeable”.

Consider `COCC(=O)N1CCN(C(=O)[C@H]2CC[C@H](Cn3c(=O)[nH]c4ccccc4c3=O)CC2)CC1`, for which the permeability result in [1] is “permeable”.

As for `CC(C)C(=O)N1CCN(C(=O)[C@H]2CC[C@H](Cn3c(=O)[nH]c4ccccc4c3=O)CC2)CC1`, in data set [1], the permeability result was “permeable”.

On to `O=C(C1CC1)N1CCN(C(=O)[C@H]2CC[C@H](Cn3c(=O)[nH]c4ccccc4c3=O)CC2)CC1`, for which, in [1], the permeability result was “permeable”.

In the case of `O=C(c1ccno1)N1CCN(C(=O)[C@H]2CC[C@H](Cn3c(=O)[nH]c4ccccc4c3=O)CC2)CC1`, the permeability entry in data set [1] is “permeable”.

As to `O=C(C1CCC1)N1CCN(C(=O)[C@H]2CC[C@H](Cn3c(=O)[nH]c4ccccc4c3=O)CC2)CC1`, the permeability result in data set [1] is “permeable”.

As for `COc1cccc2[nH]c(=O)n(C[C@H]3CC[C@H](C(=O)N4CCN(C(=O)C(C)C)CC4)CC3)c(=O)c12`, the permeability entry in [1] is “permeable”.

For the compound `CC(C)C(=O)N1CCN(C(=O)[C@H]2CC[C@H](Cn3c(=O)[nH]c4cccc(Cl)c4c3=O)CC2)CC1`, in [1], the permeability entry is on record as “permeable”.

Turning to `CC(C)C(=O)N1CCN(C(=O)[C@H]2CC[C@H](Cn3c(=O)[nH]c4cccc(F)c4c3=O)CC2)CC1`, the permeability entry in [1] was “permeable”.

In the case of `Cc1ccc2[nH]c(=O)n(C[C@H]3CC[C@H](C(=O)N4CCN(C(=O)C(C)C)CC4)CC3)c(=O)c2c1`, in data set [1], the permeability result is on record as “permeable”.

As to `COc1ccc2[nH]c(=O)n(C[C@H]3CC[C@H](C(=O)N4CCN(C(=O)C(C)C)CC4)CC3)c(=O)c2c1`, in [1], the permeability entry is “permeable”.

Take `CC(C)C(=O)N1CCN(C(=O)[C@H]2CC[C@H](Cn3c(=O)[nH]c4cc(Cl)ccc4c3=O)CC2)CC1`: the permeability result in data set [1] is “permeable”.

With `Cc1cccc2c(=O)n(C[C@H]3CC[C@H](C(=O)N4CCN(C(=O)C(C)C)CC4)CC3)c(=O)[nH]c12`, the permeability result in data set [1] is “permeable”.

`COc1ccc2[nH]c(=O)n(C[C@H]3CC[C@H](C(=O)N4CCN(C(=O)C5CC5)CC4)CC3)c(=O)c2c1`: in data set [1], the permeability result is on record as “permeable”. Besides, the microsomal CLint at 1 µM in data set [2] is 65.6 µL/min/mg. Besides, the remaining at 3 h, 10 µM in data set [3] is 78%.

As for `COc1ccc2c(c1)c(=O)n(C[C@H]1CC[C@H](C(=O)N3CCN(C(=O)C4CC4)CC3)CC1)c(=O)n2C`, the permeability entry in [1] is “permeable”. Besides, the microsomal CLint at 1 µM in data set [2] worked out at 139 µL/min/mg. Further, in data set [3], the remaining at 3 h, 10 µM amounted to 98%.

Turning to `COCC(=O)N1CCN(C(=O)[C@H]2CC[C@H](Cn3c(=O)[nH]c4ccc(OC)cc4c3=O)CC2)CC1`, in data set [1], the permeability entry is recorded as “permeable”. The microsomal CLint at 1 µM in data set [2] was 14.5 µL/min/mg. Also, the remaining at 3 h, 10 µM in data set [3] is 74%.

Consider `COCC(=O)N1CCN(C(=O)[C@H]2CC[C@H](Cn3c(=O)c4cc(OC)ccc4n(C)c3=O)CC2)CC1`, for which, in [1], the permeability entry is “permeable”. For the same compound, in [2], the microsomal CLint at 1 µM worked out at 23 µL/min/mg. Moreover, in data set [3], the remaining at 3 h, 10 µM is 95%. Moreover, in the data set on MDR1, the Papp A→B at 2 h, 10 µM amounted to 1.3 ×10⁻⁶ cm/s. For the same compound, the Cmax in data set [4] worked out at 1.3 µM; in [11] it was 27 µM; in data set [12], 22 µM; in data set [13] it was 35 µM. The half-life in data set [5] is 2.2 h; in data set [20] it was 2.2 h; in [21], 1.6 h; in [22], 5.4 h. The compound also displayed a Vdss in the data set on Mus musculus [6] of 0.83 L/kg. For the same compound, the results for the exposure (AUC) (in the data set on Mus musculus [7]; in data set [15]; in [16]) were 4.9 µM·h, 101 µM·h and 193 µM·h, respectively. The same compound gave a bioavailability in data set [8] of 42%. Further, in data set [9], the Kp worked out at 0.03. In addition, the MTD at 336 h in data set [10] is 250 mg/kg. In [14], this compound returned an AUC at 336 h of 113 µM·h. In addition, the results for the Tmax in [17], in [18] and in data set [19] were 0.5 h, 0.5 h and 1 h, respectively.

`COc1ccc2[nH]c(=O)n(C[C@H]3CC[C@H](C(=O)N4CCN(C(C)=O)CC4)CC3)c(=O)c2c1`: the permeability result in data set [1] is “permeable”. In data set [2], the microsomal CLint at 1 µM was 41.2 µL/min/mg. In addition, the remaining at 3 h, 10 µM in data set [3] stood at 100%.

`COc1ccc2c(c1)c(=O)n(C[C@H]1CC[C@H](C(=O)N3CCN(C(C)=O)CC3)CC1)c(=O)n2C`: the permeability entry in [1] is on record as “permeable”. The microsomal CLint at 1 µM in data set [2] turned out to be 33.3 µL/min/mg. Besides, the remaining at 3 h, 10 µM in data set [3] came to 100%.

In general, Cmax refers to the highest concentration seen after dosing. By half-life is commonly meant how long it takes for the measured level to halve. As usually defined, the AUC is concentration integrated over time. The low end stands for less exposure, the high end for more exposure. Usually bioavailability stands for the share of a dose that reaches the circulation, judged against a reference dose that is usually intravenous. One may read the Tmax as the time at which the peak concentration occurs.
